Experimental data: PubChem BioAssay (NCI)
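GI50 = concentration required for 50% inhibition of growth. TGI: total growth inhibition.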

Experiments:
Assay in all cases: inhibition of tumour cell growth, NCI panel, 384-well format
RPMI-8226 leukemia = system: RPMI-8226 leukemia
MDA-MB-435 melanoma = system: MDA-MB-435 melanoma
SK-MEL-2 melanoma = system: SK-MEL-2 melanoma
SF-295 CNS = system: SF-295 CNS
SNB-19 CNS = system: SNB-19 CNS
SN12C renal = system: SN12C renal
IGROV1 ovarian = system: IGROV1 ovarian
HL-60(TB) leukemia = system: HL-60(TB) leukemia
EKVX NSCLC = system: EKVX NSCLC
786-0 renal = system: 786-0 renal
NCI/ADR-RES ovarian = system: NCI/ADR-RES ovarian
RXF 393 renal = system: RXF 393 renal
MOLT-4 leukemia = system: MOLT-4 leukemia
NCI-H322M lung = system: NCI-H322M lung
NCI-H226 lung = system: NCI-H226 lung
COLO 205 colon = system: COLO 205 colon
DU-145 prostate = system: DU-145 prostate
SK-MEL-28 melanoma = system: SK-MEL-28 melanoma
NCI-H460 NSCLC = system: NCI-H460 NSCLC
SF-539 CNS = system: SF-539 CNS
SF-268 CNS = system: SF-268 CNS
TK-10 renal = system: TK-10 renal
A498 renal = system: A498 renal
SNB-75 CNS = system: SNB-75 CNS
SW-620 colon = system: SW-620 colon
HCT-15 colon = system: HCT-15 colon
UACC-62 melanoma = system: UACC-62 melanoma
HCC-2998 colon = system: HCC-2998 colon
BT-549 breast = system: BT-549 breast
CCRF-CEM leukemia = system: CCRF-CEM leukemia
M14 melanoma = system: M14 melanoma
UACC-257 melanoma = system: UACC-257 melanoma
CAKI-1 renal = system: CAKI-1 renal
MALME-3M melanoma = system: MALME-3M melanoma
MDA-MB-468 breast = system: MDA-MB-468 breast
HS 578T breast = system: HS 578T breast
OVCAR-4 ovarian = system: OVCAR-4 ovarian
ACHN renal = system: ACHN renal
OVCAR-8 ovarian = system: OVCAR-8 ovarian
SK-MEL-5 melanoma = system: SK-MEL-5 melanoma
U251 glioblastoma = system: U251 glioblastoma
HOP-92 NSCLC = system: HOP-92 NSCLC
HOP-62 NSCLC = system: HOP-62 NSCLC
A549 NSCLC = system: A549 NSCLC
NCI-H23 lung = system: NCI-H23 lung
MCF7 breast = system: MCF7 breast
OVCAR-5 ovarian = system: OVCAR-5 ovarian
KM12 colon = system: KM12 colon
SK-OV-3 ovarian = system: SK-OV-3 ovarian
SR leukemia = system: SR leukemia
OVCAR-3 ovarian = system: OVCAR-3 ovarian
T-47D breast = system: T-47D breast
PC-3 prostate = system: PC-3 prostate
HT29 colon = system: HT29 colon
NCI-H522 lung = system: NCI-H522 lung
MDA-MB-231 breast = system: MDA-MB-231 breast

Q: Which results are given for `CC1(C)CCC2=C(O1)c1ccccc1C(=O)C2=O`?
A: GI50 (RPMI-8226 leukemia): 1.82 µM; TGI (RPMI-8226 leukemia): 3.23 µM; GI50 (MDA-MB-435 melanoma): 1.86 µM; TGI (MDA-MB-435 melanoma): 3.27 µM; GI50 (SK-MEL-2 melanoma): 3.02 µM; TGI (SK-MEL-2 melanoma): 4.53 µM; GI50 (SF-295 CNS): 1.48 µM; TGI (SF-295 CNS): 2.91 µM; GI50 (SNB-19 CNS): 1.88 µM; TGI (SNB-19 CNS): 3.43 µM; GI50 (SN12C renal): 1.61 µM; TGI (SN12C renal): 2.98 µM; GI50 (IGROV1 ovarian): 2.02 µM; TGI (IGROV1 ovarian): 3.82 µM; GI50 (HL-60(TB) leukemia): 1.44 µM; TGI (HL-60(TB) leukemia): 2.79 µM; GI50 (EKVX NSCLC): 1.75 µM; TGI (EKVX NSCLC): 3.15 µM; GI50 (786-0 renal): 1.84 µM; TGI (786-0 renal): 3.37 µM; GI50 (NCI/ADR-RES ovarian): 2.08 µM; TGI (NCI/ADR-RES ovarian): 3.74 µM; GI50 (RXF 393 renal): 1.93 µM; TGI (RXF 393 renal): 3.35 µM; GI50 (MOLT-4 leukemia): 1.76 µM; TGI (MOLT-4 leukemia): 3.17 µM; GI50 (NCI-H322M lung): 2.51 µM; TGI (NCI-H322M lung): 5.8 µM; GI50 (NCI-H226 lung): 2 µM; TGI (NCI-H226 lung): 3.44 µM; GI50 (COLO 205 colon): 2.27 µM; TGI (COLO 205 colon): 3.73 µM; GI50 (DU-145 prostate): 1.85 µM; TGI (DU-145 prostate): 3.28 µM; GI50 (SK-MEL-28 melanoma): 2.48 µM; TGI (SK-MEL-28 melanoma): 3.96 µM; GI50 (NCI-H460 NSCLC): 1.9 µM; TGI (NCI-H460 NSCLC): 3.5 µM; GI50 (SF-539 CNS): 1.89 µM; TGI (SF-539 CNS): 3.31 µM; GI50 (SF-268 CNS): 1.97 µM; TGI (SF-268 CNS): 3.49 µM; GI50 (TK-10 renal): 3.37 µM; TGI (TK-10 renal): 10.6 µM; GI50 (A498 renal): 1.94 µM; TGI (A498 renal): 3.47 µM; GI50 (SNB-75 CNS): 0.95 µM; TGI (SNB-75 CNS): 2.14 µM; GI50 (SW-620 colon): 1.79 µM; TGI (SW-620 colon): 3.2 µM; GI50 (HCT-15 colon): 1.84 µM; TGI (HCT-15 colon): 3.26 µM; GI50 (UACC-62 melanoma): 1.97 µM; TGI (UACC-62 melanoma): 3.4 µM; GI50 (HCC-2998 colon): 1.75 µM; TGI (HCC-2998 colon): 3.42 µM; GI50 (BT-549 breast): 1.77 µM; TGI (BT-549 breast): 3.16 µM; GI50 (CCRF-CEM leukemia): 1.89 µM; TGI (CCRF-CEM leukemia): 3.32 µM; GI50 (M14 melanoma): 1.94 µM; TGI (M14 melanoma): 3.37 µM; GI50 (UACC-257 melanoma): 1.67 µM; TGI (UACC-257 melanoma): 3.05 µM; GI50 (CAKI-1 renal): 1.87 µM; TGI (CAKI-1 renal): 3.28 µM; GI50 (MALME-3M melanoma): 1.99 µM; TGI (MALME-3M melanoma): 3.42 µM; GI50 (MDA-MB-468 breast): 1.2 µM; TGI (MDA-MB-468 breast): 2.45 µM; GI50 (HS 578T breast): 1.7 µM; TGI (HS 578T breast): 3.08 µM; GI50 (OVCAR-4 ovarian): 2 µM; TGI (OVCAR-4 ovarian): 3.43 µM; GI50 (ACHN renal): 1.9 µM; TGI (ACHN renal): 3.32 µM; GI50 (OVCAR-8 ovarian): 1.98 µM; TGI (OVCAR-8 ovarian): 3.72 µM; GI50 (SK-MEL-5 melanoma): 1.75 µM; TGI (SK-MEL-5 melanoma): 3.14 µM; GI50 (U251 glioblastoma): 2.01 µM; TGI (U251 glioblastoma): 3.63 µM; GI50 (HOP-92 NSCLC): 1.88 µM; TGI (HOP-92 NSCLC): 3.33 µM; GI50 (HOP-62 NSCLC): 1.61 µM; TGI (HOP-62 NSCLC): 2.98 µM; GI50 (A549 NSCLC): 1.91 µM; TGI (A549 NSCLC): 3.35 µM; GI50 (NCI-H23 lung): 1.37 µM; TGI (NCI-H23 lung): 2.67 µM; GI50 (MCF7 breast): 1.79 µM; TGI (MCF7 breast): 3.21 µM; GI50 (OVCAR-5 ovarian): 1.62 µM; TGI (OVCAR-5 ovarian): 2.99 µM; GI50 (KM12 colon): 2.06 µM; TGI (KM12 colon): 3.8 µM; GI50 (SK-OV-3 ovarian): 1.75 µM; TGI (SK-OV-3 ovarian): 3.28 µM; GI50 (SR leukemia): 1.89 µM; TGI (SR leukemia): 3.32 µM; GI50 (OVCAR-3 ovarian): 1.79 µM; TGI (OVCAR-3 ovarian): 3.22 µM; GI50 (T-47D breast): 1.36 µM; TGI (T-47D breast): 2.66 µM; GI50 (PC-3 prostate): 2.14 µM; TGI (PC-3 prostate): 4.98 µM; GI50 (HT29 colon): 1.88 µM; TGI (HT29 colon): 3.31 µM; GI50 (NCI-H522 lung): 1.84 µM; TGI (NCI-H522 lung): 3.24 µM; GI50 (MDA-MB-231 breast): 1.88 µM; TGI (MDA-MB-231 breast): 3.54 µM
